# Values quoted from earlier work in patent US20080089844A1 (priority 2002, published 2008).
# Target: F425G Shaker mutation (Drosophila melanogaster, UniProt P08510, F425G)
# Conditions: cited from earlier work
# F425G Shaker mutation, sequence (P08510 whole entry F425G, looked up): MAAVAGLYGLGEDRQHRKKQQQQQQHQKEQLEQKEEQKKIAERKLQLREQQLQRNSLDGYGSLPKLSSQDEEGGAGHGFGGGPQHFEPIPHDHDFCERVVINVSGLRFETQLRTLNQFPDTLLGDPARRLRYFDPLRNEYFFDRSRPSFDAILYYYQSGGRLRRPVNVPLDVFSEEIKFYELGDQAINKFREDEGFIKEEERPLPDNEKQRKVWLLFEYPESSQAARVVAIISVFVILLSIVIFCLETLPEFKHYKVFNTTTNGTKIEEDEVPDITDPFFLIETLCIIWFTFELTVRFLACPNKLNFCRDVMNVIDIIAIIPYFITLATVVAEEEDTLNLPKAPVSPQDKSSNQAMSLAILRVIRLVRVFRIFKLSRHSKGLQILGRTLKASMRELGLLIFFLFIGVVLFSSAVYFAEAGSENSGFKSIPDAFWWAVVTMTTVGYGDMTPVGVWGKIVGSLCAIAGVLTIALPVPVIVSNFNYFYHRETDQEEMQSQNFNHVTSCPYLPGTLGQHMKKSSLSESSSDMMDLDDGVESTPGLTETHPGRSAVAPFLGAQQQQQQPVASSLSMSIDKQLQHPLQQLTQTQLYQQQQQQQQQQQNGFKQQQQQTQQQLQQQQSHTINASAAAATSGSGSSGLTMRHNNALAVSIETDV
substance,measurement,value
charybdotoxin [reference compound],effect of F425G Shaker mutation on charybdotoxin affinity,increases charybdotoxin affinity by three orders of magnitude
